Series [1] concerns HtrA1 expression in HCT116 and SW480 cells. The experiment in a line: HtrA1 expression by quantitative real-time PCR after 5-Aza-dC and TSA treatment. The settings on record: HCT116 and SW480 cancer cells treated with 5-Aza-dC (5 μM and 10 μM, 56 h) then 400 nM TSA (16 h) vs solvent only. It counts as cell-based, human. As for the experimental part:
Expression of HtrA1 in HCT116 and SW480 cells treated with 5-Aza-dC and TSA. Cells were treated with 5-Aza-dC and TSA or solvent only. RNA was extracted from the cells followed by reverse transcription. cDNA was analyzed by quantitative real-time PCR.
Cells were seeded at a density of 5×10^5/60 mm dish and allowed to attach over 24 h in a 37° C. incubator in a humified atmosphere with 5% CO2. 5-aza-2′-deoxycytidine was solved in 50% acetic acid. It was added to the medium for a final concentration ranging from 0 to 10 μM for 72 h. At every 24 h interval, fresh medium containing the drug was added. Cells were incubated in a 37° C. incubator in a humified atmosphere with 5% CO2. […]
At the end of the treatment cells were washed twice with PBS and RNA was isolated for analysis of HtrA1 expression using quantitative Real-Time-PCR. […]
Quantitative Real-Time PCR was performed on the RotorGene3000 (Corbett Life Science) using Absolute QPCR SYBR Green Mix (ABgene) according to the manufacturer's instructions. 1 μl of cDNA, 12.5 μl Absolute QPCR SYBR Green Mix and 400 nM of each primer were used for the quantitative real-time PCR reaction. […]
The relative gene expression level of HtrA1 was calculated relative to the GAPDH and PPIA genes according to the method of Pfaffl (Pfaffl Nucleic Acids Res 29:e45 (2001)).
(Quantitative PCR measures a nucleic acid by following its amplification.)

The target of series [2] is HtrA1 (Homo sapiens, UniProt Q92743). The experiment in a line: HtrA1 enzymatic activity with p-NA substrate. The class given is biochemical. The settings on record: 25 μM Cytochalasin E, preincubated 10 minutes at 37° C., 0.5 mM p-NA substrate, measured 70 minutes at 405 nm. The protocol:
HtrA1 activity was determined with a p-NA substrate. HtrA1 was incubated with either DMSO alone or 25 μM Cytochalasin E that was dissolved in DMSO. Reaction was measured spectrophometrically for 70 minutes at 37° C. at 405 nm.
Enzymatic activity of HtrA1 was assayed using acyl p-nitroanilide (p-NA) substrate FANQHLCGSHLVEA-p-NA. HtrA1 (5 μg) was preincubated with Cytochalasin E (25 μM) for 10 minutes at 37° C. Reaction was initiated by adding p-NA substrate at a final concentration of 0.5 mM. The volume of each reaction was 100 μl in 50 mM Tris-HCl pH 8. Reaction was measured continuously in a spectrophotometer for 70 minutes at 37° C. at 405 nm.

The next series relates to cells. The settings on record: cited from earlier work.
Series [3] has as its system HtrA1. Nature of the series: HtrA1 RNA level by quantitative RT-PCR after shRNA transduction. The class given is cell-based, human. The settings on record: U373 and SW480 cells expressing the shRNA vs empty vector control. As for the experimental part: (§1) Analysis of HtrA1 and p21 expression in U373 (astrocytoma) and SW480 (colon cancer) cells transduced with an shRNA against HtrA1 or an empty vector control. The HtrA1- and p21-RNA level were analysed by quantitative RT-PCR.
(§2) The cell line SW480 derived from human colon adenocarcinoma (DMSZ no. ACC 313) and the cell line U373 MG derived from human glioblastoma astrocytoma (ECACC no. 89081403) were cultured in DMEM (Gibco, Invitrogen) supplemented with 10% fetal bovine serum (FBS) and 1% penicillin-streptomycin at 5% CO2 and 37° C. The media for the stable transduced SW480 cell lines additionally contain 1.8 μg/ml puromycin.
(§3) 4×10^5 SW480 cells/well were seeded into a six-well plate. After two days the six-well plate was 80% confluent and RNA was extracted by using total RNA isolation kit (Macherey-Nagel). RNA was purified with NucleoSpin RNAII columns (Macherey-Nagel) according to the procedure by the manufacturer. […]
(§4) Quantitative RT-PCR was done with Platinum SYBR Green qPCR-superMix-UDG-kit (Invitrogen) with Rotor-Gene RG3000 from Corbett Research. […]
(§5) The total reaction volume was of 25 μl, containing 12.5 μl SYBR Green PCR Master Mix (Invitrogen), 1 μl Primer (4.5 μM each) and 4 μl cDNA (20 ng). […] Melting curve was measured every 5 seconds from 50° C. to 99° C. Gene expression ratios for each sample were calculated as described (Pfaffl, Nucleic Acids Res, 29:e45 (2001)). […]

Another series relates to SW480 cells. Nature of the series: Polyploidy of SW480 cells depleted for HtrA1 (FACS, karyotyping). It counts as cell-based, human. As for the experimental part: A) Polyploidy of SW480 cells depleted for HtrA1/FACS analysis • SW480 (colon cancer) cells were transduced with a shRNA against HtrA1. After some passages cells were analyzed by propidium iodide staining for their DNA content. Gate M1 corresponds to a DNA content of 2n, gate M3 corresponds to a DNA content of 4n and gate M5 corresponds to a DNA content of 8n. […] B) Polyploidy of SW480 cells depleted for HtrA 1/karyo-typing • Metaphase chromosomes of SW480 cell lines transduced with plko empty vector and plko vector containing a shRNA against HtrA1.
Cells were harvested by treatment with trypsin/EDTA. Cells were centrifuged for 5 minutes at 1700 g and 4° C. The pellet was resuspended and washed in 1 ml PBS. Cells were centrifuged again for 5 minutes at 1700 g and 4° C. The supernatant was discarded and the pellet was resuspended in 100 μl PBS. […] After addition of 5 μl RNase A (10 mg/ml) and 15 μl propidium iodide (2 mg/ml, Sigma #P4170), cells were incubated in the dark at 4° C. for 60 minutes and then analysed at the flow cytometer (FACScalibur, BD biosciences) […]
Cell suspensions were dropped onto pre-cleaned, wet, ice-cold glass microscope slides to obtain good spreading of the chromosome sets. […] Intact metaphase cells (those that were not disrupted during the preparation step) were counted for their chromosome numbers at 1000 fold magnification (oil-immersion).

The subject of the next series is p21. The experiment in a line: p21 RNA level by quantitative RT-PCR after shRNA against HtrA1. The class given is cell-based, human. As for the experimental part: as §1, §2, §3, §4, §5

Where two headings read alike, the source gives them in different places.

Chain of HtrA1 (Homo sapiens, UniProt Q92743) (Q92743 23-480): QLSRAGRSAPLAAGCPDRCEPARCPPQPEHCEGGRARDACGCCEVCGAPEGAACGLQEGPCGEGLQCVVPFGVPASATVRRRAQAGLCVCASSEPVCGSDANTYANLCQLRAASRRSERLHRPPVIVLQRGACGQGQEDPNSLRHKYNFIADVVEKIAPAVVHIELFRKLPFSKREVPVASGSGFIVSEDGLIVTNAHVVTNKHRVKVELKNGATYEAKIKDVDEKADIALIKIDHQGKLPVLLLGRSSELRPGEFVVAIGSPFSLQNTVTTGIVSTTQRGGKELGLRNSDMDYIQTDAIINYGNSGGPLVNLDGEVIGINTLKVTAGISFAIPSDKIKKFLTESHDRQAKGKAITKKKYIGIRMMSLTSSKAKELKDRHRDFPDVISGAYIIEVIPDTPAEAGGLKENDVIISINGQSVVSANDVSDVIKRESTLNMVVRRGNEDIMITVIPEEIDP

Take `Nc1ncn([C@H]2C[C@H](O)[C@@H](CO)O2)c(=O)n1` [5-Aza-dC, 5-Aza-2′-deoxycytidine]: the HtrA1 expression entry in series [1] was “large increase in HtrA1 expression”.
For `C[C@H]1C/C=C/[C@H]2[C@@H]3O[C@]3(C)[C@@H](C)[C@H]3[C@H](Cc4ccccc4)NC(=O)[C@]32OC(=O)O/C=C/[C@@](C)(O)C1=O` [Cytochalasin E], the HtrA1 activity inhibition result at HtrA1 [2] is “potent HtrA1 inhibitor”; at HtrA1 [2] (listed as cytochalasin E), “efficiently inhibits HtrA1”.
For `CC(/C=C/C(=O)NO)=C\[C@@H](C)C(=O)c1ccc(N(C)C)cc1` [TSA, Trichostatin A], the HtrA1 expression result in series [1] is on record as “large increase in HtrA1 expression”.
As to `C=C1[C@@H](C)[C@H]2[C@H](Cc3ccccc3)NC(=O)[C@]23OC(=O)/C=C/[C@H](O)CCC[C@@H](C)C/C=C/[C@H]3[C@@H]1O` [Cytochalasin B], in the series on cells (high amounts), the “p21 induction and cell cycle arrest” value was “induce p21 and cell cycle arrest”. In addition, the cell cycle arrest entry is reported as “cell cycle arrest via p21” with cells (large amounts (10 μg/ml)) and “no cell cycle arrest” with cells (low doses (0.5 μg/ml)). The polyploidy result with cells (large amounts (10 μg/ml)) was “cause polyploidy”; in the series on cells (low doses (0.5 μg/ml)), “also cause polyploidy”; in the series with cells (no concentration stated, by inhibition of actin polymerisation), “causes polyploidy”.

B1: shRNA against HtrA1: hairpin sequence (Seq. ID. No 25/26) in lentiviral plko vector, knocks down HtrA1 (nucleic acid)
sense: CCGGGATCTCAGGAGCGTATATATTCTCGAGAATATATACGCTCCTGAGATCTTTTTG
antisense: CTAGAGTCCTCGCATATATAAGAGCTCTTATATATGCGAGGACTCTAGAAAAACTTAA
On to B1, for which the HtrA1 level downregulated result with HtrA1 [3] is “more than 90%”. Also, in the series with SW480 cells (SW480 cells vs empty vector), the “DNA content by propidium iodide staining (FACS)” value was “shift of the main peak from 2n to 4n and a shift of the smaller peak from 4n to 8n”. Besides, the “polyploidy by karyotyping of metaphase chromosomes” value in the series with SW480 cells (SW480 cells vs empty vector control) is “higher grade of polyploidy”. Moreover, the “p21 mRNA levels downregulated by a factor of” value in the series with p21 (HtrA1 expressed at much lower levels by shRNA) was 10. Besides, the P21 level down-regulated with p21 (both cell lines (U373, SW480) expressing the shRNA against HtrA1) was 90%.

Values taken from patent publication US20110111407A1, “METHOD FOR ANALYSING THE EPIGENETIC STATUS OF THE HTRA 1 GENE IN A BIOLOGICAL SAMPLE” (priority 2008, published 2011).
